From ChEMBL document CHEMBL1129223, “1-Oxo-3-aryl-1H-indene-2-carboxylic acid derivatives as selective inhibitors of fibroblast growth factor receptor-1 tyrosine kinase” (Bioorg Med Chem Lett, 1997) come the findings set out here.

For assay [1], the target named is T1, Proto-oncogene tyrosine-protein kinase Src (Homo sapiens, UniProt P12931). Description: Inhibitory activity against c-src tyrosine kinase at 50 uM.
Assay [2] addresses T2, Fibroblast growth factor receptor (Homo sapiens, UniProt P22607+P11362+P22455+P21802). Description: Inhibitory activity against fibroblast growth factor receptor (FGFr). The format is protein assay.
In assay [3] the target is Platelet-derived growth factor receptor (Homo sapiens) (UniProt P09619+P16234). Description: Inhibitory activity against platelet-derived growth factor receptor (PDGFr) at 50 uM.
Assay [4] addresses T1, Proto-oncogene tyrosine-protein kinase Src. Description: Inhibitory activity against c-src tyrosine kinase.
In assay [5] the target is T2, Fibroblast growth factor receptor. Description: Inhibitory activity against fibroblast growth factor receptor (FGFr) at 50 uM. The assay is classed as protein assay.

Molecules are shown by their SMILES.

T1 sequence (P12931 2-536 limits assumed): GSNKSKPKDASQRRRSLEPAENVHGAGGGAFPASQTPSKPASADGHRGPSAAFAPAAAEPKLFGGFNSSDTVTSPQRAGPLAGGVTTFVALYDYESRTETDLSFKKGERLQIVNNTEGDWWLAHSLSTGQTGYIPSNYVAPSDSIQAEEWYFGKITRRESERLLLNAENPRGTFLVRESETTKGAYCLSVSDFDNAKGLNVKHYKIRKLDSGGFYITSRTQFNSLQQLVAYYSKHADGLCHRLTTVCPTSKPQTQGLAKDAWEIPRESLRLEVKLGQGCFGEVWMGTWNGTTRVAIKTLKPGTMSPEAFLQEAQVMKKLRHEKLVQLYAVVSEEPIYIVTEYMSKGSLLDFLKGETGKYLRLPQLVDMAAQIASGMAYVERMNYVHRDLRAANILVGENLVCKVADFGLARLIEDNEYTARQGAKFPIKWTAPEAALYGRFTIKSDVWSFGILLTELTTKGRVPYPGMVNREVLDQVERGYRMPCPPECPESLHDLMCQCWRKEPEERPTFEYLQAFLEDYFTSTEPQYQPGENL
T2 sequence (P11362 whole entry, looked up): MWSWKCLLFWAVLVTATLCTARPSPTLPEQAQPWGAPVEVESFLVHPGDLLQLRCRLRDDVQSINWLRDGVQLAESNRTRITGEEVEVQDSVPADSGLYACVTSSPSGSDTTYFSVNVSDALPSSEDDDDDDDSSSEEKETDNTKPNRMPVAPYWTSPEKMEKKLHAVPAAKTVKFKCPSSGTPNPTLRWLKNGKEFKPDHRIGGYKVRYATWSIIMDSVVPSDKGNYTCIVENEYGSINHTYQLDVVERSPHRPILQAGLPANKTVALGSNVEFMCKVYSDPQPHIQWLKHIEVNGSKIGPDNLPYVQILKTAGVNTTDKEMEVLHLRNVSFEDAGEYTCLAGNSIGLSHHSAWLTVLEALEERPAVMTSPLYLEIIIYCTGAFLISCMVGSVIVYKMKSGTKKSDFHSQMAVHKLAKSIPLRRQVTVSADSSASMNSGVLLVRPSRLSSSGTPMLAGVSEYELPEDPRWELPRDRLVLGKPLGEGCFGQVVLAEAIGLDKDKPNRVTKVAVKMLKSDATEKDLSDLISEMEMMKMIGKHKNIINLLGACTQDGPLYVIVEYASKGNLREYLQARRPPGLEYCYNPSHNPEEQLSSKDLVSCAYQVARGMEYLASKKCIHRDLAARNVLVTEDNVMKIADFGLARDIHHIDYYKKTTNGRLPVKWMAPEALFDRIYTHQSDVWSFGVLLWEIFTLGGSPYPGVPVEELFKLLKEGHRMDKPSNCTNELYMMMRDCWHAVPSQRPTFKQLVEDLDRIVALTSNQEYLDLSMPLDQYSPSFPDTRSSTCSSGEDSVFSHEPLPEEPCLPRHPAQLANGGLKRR
T2 sequence (P21802 whole entry, looked up): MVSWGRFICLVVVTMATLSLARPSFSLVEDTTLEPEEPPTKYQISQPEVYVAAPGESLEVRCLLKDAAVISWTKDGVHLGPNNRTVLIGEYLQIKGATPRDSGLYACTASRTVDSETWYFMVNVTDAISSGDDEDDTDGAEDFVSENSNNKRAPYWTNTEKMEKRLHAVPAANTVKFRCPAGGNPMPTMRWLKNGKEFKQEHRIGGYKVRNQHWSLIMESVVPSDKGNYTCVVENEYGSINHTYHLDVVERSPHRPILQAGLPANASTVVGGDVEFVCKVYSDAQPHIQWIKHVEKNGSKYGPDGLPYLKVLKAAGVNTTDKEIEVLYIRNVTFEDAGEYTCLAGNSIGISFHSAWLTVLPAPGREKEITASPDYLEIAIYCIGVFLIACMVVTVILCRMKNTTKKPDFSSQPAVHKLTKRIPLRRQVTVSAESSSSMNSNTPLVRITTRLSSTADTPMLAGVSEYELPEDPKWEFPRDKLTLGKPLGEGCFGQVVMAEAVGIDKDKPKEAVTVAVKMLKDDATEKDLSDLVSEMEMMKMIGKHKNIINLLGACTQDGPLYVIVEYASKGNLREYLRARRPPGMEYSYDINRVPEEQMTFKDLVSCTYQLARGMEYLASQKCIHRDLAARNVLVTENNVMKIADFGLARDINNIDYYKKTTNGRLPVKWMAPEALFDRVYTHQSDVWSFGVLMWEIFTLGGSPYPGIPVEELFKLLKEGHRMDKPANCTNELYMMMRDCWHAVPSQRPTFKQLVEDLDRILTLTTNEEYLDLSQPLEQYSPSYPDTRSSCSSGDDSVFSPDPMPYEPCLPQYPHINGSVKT
T2 sequence (P22455 whole entry, looked up): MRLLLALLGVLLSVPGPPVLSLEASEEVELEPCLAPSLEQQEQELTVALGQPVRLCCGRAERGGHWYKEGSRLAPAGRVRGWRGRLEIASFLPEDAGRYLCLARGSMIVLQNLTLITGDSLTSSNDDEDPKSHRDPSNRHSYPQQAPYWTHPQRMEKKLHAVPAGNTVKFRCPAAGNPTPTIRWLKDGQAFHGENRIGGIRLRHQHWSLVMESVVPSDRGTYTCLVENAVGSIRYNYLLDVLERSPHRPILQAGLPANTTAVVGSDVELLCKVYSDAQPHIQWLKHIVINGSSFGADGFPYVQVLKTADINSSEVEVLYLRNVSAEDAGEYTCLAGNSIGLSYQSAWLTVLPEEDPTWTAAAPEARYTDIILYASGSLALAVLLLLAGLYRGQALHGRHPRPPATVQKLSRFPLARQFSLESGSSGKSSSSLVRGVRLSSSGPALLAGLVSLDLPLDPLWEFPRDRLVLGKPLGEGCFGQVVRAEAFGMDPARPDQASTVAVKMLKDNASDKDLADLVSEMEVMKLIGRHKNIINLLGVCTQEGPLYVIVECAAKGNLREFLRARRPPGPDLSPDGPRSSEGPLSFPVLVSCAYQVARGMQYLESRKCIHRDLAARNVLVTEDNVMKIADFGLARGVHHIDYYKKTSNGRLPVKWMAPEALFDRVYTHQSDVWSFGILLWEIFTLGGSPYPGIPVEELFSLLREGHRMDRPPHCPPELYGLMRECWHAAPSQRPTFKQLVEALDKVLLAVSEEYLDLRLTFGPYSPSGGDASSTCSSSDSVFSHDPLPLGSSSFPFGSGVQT
T2 sequence (P22607 whole entry, looked up): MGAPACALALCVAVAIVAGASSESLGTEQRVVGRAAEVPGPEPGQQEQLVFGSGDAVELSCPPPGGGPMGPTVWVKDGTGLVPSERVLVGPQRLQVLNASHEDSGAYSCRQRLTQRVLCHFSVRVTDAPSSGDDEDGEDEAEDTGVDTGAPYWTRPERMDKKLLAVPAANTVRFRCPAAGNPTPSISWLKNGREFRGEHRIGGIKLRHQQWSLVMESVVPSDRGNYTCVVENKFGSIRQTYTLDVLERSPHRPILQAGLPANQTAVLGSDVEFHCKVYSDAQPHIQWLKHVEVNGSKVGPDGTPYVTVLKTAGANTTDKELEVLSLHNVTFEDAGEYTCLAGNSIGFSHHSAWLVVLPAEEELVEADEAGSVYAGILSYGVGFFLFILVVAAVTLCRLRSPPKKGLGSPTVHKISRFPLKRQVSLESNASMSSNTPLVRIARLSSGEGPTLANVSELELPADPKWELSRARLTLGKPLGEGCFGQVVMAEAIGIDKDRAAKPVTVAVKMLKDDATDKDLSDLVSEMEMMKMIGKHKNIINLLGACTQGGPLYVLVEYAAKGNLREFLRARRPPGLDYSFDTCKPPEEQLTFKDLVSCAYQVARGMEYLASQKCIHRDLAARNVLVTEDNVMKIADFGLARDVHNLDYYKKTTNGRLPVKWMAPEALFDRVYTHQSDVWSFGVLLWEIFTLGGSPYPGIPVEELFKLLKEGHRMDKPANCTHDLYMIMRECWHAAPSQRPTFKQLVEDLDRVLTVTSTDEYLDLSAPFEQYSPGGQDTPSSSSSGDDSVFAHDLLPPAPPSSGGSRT

As to `CNC(=O)C1=C(c2ccccc2)c2ccccc2C1=O`, the results for the inhibition in assay [1] and in assay [3] were 16% and 24%, respectively. In addition, the half-maximal inhibitory concentration (IC50) in assay [2] stood at 21 µM.
Take `COc1ccc(C2=C(C(N)=O)C(=O)c3ccccc32)cc1`: the IC50 in assay [4] worked out at 4 µM; in assay [2], 10.6 µM. Also, the inhibition in assay [3] was 23%.
Turning to `C/C=C1\c2ccccc2C(=O)C1C(N)=O` (configuration not stated), the figures for the inhibition in assay [5], in assay [1] and in assay [3] were 26%, 3% and 8%, respectively.
Taken in the same sequence, the figures for `CCN(CC)CCNC(=O)C1=C(c2ccccc2)c2ccccc2C1=O` were 21%, 11% and 8%.
For the compound `COC(=O)C1=C(c2ccccc2)c2cc(C)ccc2C1=O.COC(=O)C1=C(c2ccccc2)c2ccc(C)cc2C1=O`, the half-maximal inhibitory concentration (IC50) in assay [4] turned out to be 33 µM; in assay [2] it was 6.4 µM. The same compound registered an inhibition in assay [3] of 20%.
Turning to `CN(C)C(=O)C1=C(c2ccccc2)c2ccccc2C1=O`, the inhibition in assay [5] worked out at 10%; in assay [1], 1%; in assay [3], 10%.
Regarding `NC(=O)C1=C(c2ccccc2)c2ccccc2C1=O`, the IC50 in assay [4] was 3.6 µM; in assay [2], 4.7 µM. In assay [3], this compound returned an inhibition of 25%.
Consider `NC(=O)C1C(=O)c2ccccc2C1c1ccccc1` (configuration not stated), for which the inhibition turned out to be 23% in assay [5], 8% in assay [1] and 16% in assay [3].
Consider `COC(=O)C1=C(c2ccccc2)c2cc([N+](=O)[O-])ccc2C1=O.COC(=O)C1=C(c2ccccc2)c2ccc([N+](=O)[O-])cc2C1=O`, for which the IC50 in assay [4] turned out to be 8.3 µM; in assay [2], 10 µM. Also, the inhibition in assay [3] was determined as 19%.
Turning to `NC(=O)C1=C2CCCc3cccc(c32)C1=O`, the values for the inhibition in assay [1] and in assay [3] were 48% and 25%, respectively. In assay [2], this compound showed an IC50 of 4.2 µM.
In the case of `COC(=O)C1=C(c2ccccc2)c2cccc(C)c2C1=O`, the inhibition came to 38% in assay [1] and 11% in assay [3]. Moreover, the IC50 in assay [2] was 44 µM.
Take `COC(=O)C1=C(c2ccccc2)c2ccccc2C1=O`: the 50% inhibitory concentration (IC50) in assay [4] is 25 µM; in assay [2], 5.1 µM. The same compound showed an inhibition in assay [3] of 19%.
`O=C(O)C1=C(c2ccccc2)c2ccccc2C1=O`: the inhibition in assay [1] worked out at 7%; in assay [3], 9%. The compound also yielded an IC50 in assay [2] of 25 µM.
Take `COC(=O)C1=C(c2ccccc2)c2cc(Cl)ccc2C1=O.COC(=O)C1=C(c2ccccc2)c2ccc(Cl)cc2C1=O`: the inhibition in assay [1] amounted to 10%; in assay [3], 25%. The half-maximal inhibitory concentration (IC50) in assay [2] was 6.2 µM.
As to `NC(=O)C1=C(c2ccccc2)c2ccccc2C1O` (configuration not stated), the inhibition in assay [5] was 29%; in assay [1], 27%; in assay [3], 10%.
Consider `COC(=O)C1=C(c2ccccc2)c2ccncc2C1=O`, for which the half-inhibitory concentration (IC50) in assay [4] was found to be 7.6 µM; in assay [2], 6.8 µM. This compound also registered an inhibition in assay [3] of 27%.
Regarding `NC(=O)C1=C(c2ccc(Cl)cc2)c2ccccc2C1=O`, the IC50 in assay [4] came out at 9.6 µM; in assay [2], 5.4 µM. In addition, the inhibition in assay [3] stood at 27%.
Take `CCC1=C(C(N)=O)C(=O)c2ccccc21`: the inhibition in assay [1] is 53%; in assay [3], 8.7%. The compound also had an IC50 in assay [2] of 9.2 µM.
For the compound `COC(=O)C1=C(c2ccccc2)c2c(OC)cccc2C1=O`, the IC50 in assay [4] is 13 µM; in assay [2], 15 µM. The inhibition in assay [3] came out at 19%.

For orientation: inhibition means the share of the control response that was lost under treatment. A higher inhibition goes with strong suppression. As usually defined, the IC50 is the midpoint of a concentration-inhibition curve. High values mean a need for much substance, low ones inhibition by little substance.
